The target in one experiment is T1, BRAF-GTP-KRASWT complex (Homo sapiens, UniProt P01116+P62937).
T1 construct: substitute His6-KRas WT-GTP (1-169) for His6-KRas G12C-GTP (1-169); 500 nM of tagless CypA (1-165)
As to the kind of experiment: KRAS-BRAF complex disruption TR-FRET with wild-type KRAS (G12C specificity). To be noted: with CYPA. It is filed as biochemical. As for the experimental part:
In this example, TR-FRET was used to measure the compound-facilitated disruption of a KRAS-BRAF complex. A mixture of tagless Cyclophilin A, His6-KRAS G12C-GMP-PNP, and GST-BRAF RAS binding domain was added to a 384-well assay plate containing compounds of the invention and incubated for 3 hours. A mixture of Anti-His Eu-W1024 and anti-GST allophycocyanin was then added and the reaction was incubated for an additional 1.5 hours. TR-FRET signal was read on an EnVision microplate reader (Perkin Elmer, Ex 320 nm, Em 665/615 nm). Compounds that facilitate disruption of a KRAS_BRAF complex were identified as those eliciting a decrease in the TR-FRET ratio relative to DMSO control wells. To determine the presenter-dependence of the compound-mediated KRAS-BRAF complex disruption, Cyclophilin A was left out of the initial incubation (see Table 5). To determine G12C specificity of the compound-mediated KRAS-BRAF complex disruption, wild-type KRAS was used instead of G12C KRAS (see Table 5).
Reagents and Instrument • Tagless CYPA; 519 μM in PBS buffer, pH 7.4 • GST BRAF; 110 μM in PBS buffer, pH 7.4 • His6-KRASG12C-GMP-PNP; 50 μM in PBS buffer, pH 7.4 • His6-KRASWT-GMP-PNP; 40 μM in PBS buffer, pH 7.4 • Anti-His Eu-W1024 (LANCE® Eu-W1024; Perkin Elmer) • Anti-GST allophycocyanin (Anti-GST IgG conjugated to SureLight®-Allophycocyanin; Perkin Elmer; Product Number AD0059G) • Test compounds, 10 mM in 100% DMSO • EnVision (Perkin Elmer) • Combi MultiDrop liquid dispenser with 8-channel small volume cassette • 384-well ProxiPlate (black)
Experimental Protocol • 1. Use Mosquito to dispense 100 nL/well of compounds (varying concentration in […]) into 384-well black ProxiPlate to make assay-ready-plate (ARP). • 2. Make assay buffer containing 25 mM Hepes pH 7.3, 100 mM NaCl, 5 mM MgCl2, 0.05% BSA, and 0.002% Tween-20. • 3. Make PRE-MIX A: delivers final concentrations of 50 nM of His6-KRas G12C-GTP (1-169) and 500 nM of tagless CypA (1-165) in assay buffer. • a. […] Read on EnVision (Ex: 320 nm; Em1: 615 nm; Em2: 665 nm). • 8. […]

The target of a further experiment is T2, KRAS-G12C (Homo sapiens, UniProt P01116+P62937, G12C).
T2 construct: CypA 1-165 (final concentration 5 μM)
As to the kind of experiment: Percentage of crosslinking to KRAS-G12C in the presence of BME and CYPA (TOF-MS). It is filed as biochemical. To be noted: 5 min incubation; compound 2 μM, CypA 5 μM, G12C-GMPNP 0.5 μM, BME. As for the experimental part:
• 1. 10×Incubation buffer: 125 mM HEPES pH 7.4, 750 mM NaCl, 10 mM MgCl2 • 2. 50 μM Protein A stock (CypA) in incubation buffer • 3. 5 μM Protein B (G12C-GMPNP) stock in incubation buffer • 4. 20 μM compound stock in 1×Incubation buffer with 10% DMSO • 5. 25 mM BME stock solution (prepared by diluting the BME stock in Milli Q water)
CypA 1-165 (final concentration 5 μM), test compound (final concentration 2 μM) and G12C-GMPNP (final concentration 0.5 μM) were incubated in the incubation buffer ([…]) for the requisite amount of time at room temperature. The samples were quenched with formic acid, final concentration 0.5%. 10 μL aliquots were injected to TOF-MS.
Sequence of Addition for a Final Incubation Volume of 50 μL • 1. 5 μL 10×incubation buffer • 2. 28 ul H2O • 3. 2 μL from 25 mM BME stock • 4. 5 μL CypA at 50 uM • 5. 5 μL from 5 μM G12C-GMPNP • 6. 5 μL compound from 20 μM compound stock
LC-MS is performed on an Agilent 6230 TOF-LC mass spectrometer equipped with an electrospray probe operated in positive ionization mode. 10 μL samples are injected on a Sepax Bio-C4, 300 Å, 2.1×100 mm column. The mobile phase is 0.1% (vol/vol) formic acid and 0.1% 1 mM ammonium formate in 95% water, 4.8% acetonitrile (A) and 0.1% (vol/vol) formic acid and 0.1% 1 mM ammonium formate in 95% acetonitrile and 4.8% water (B). The separation is performed by a 9 min total gradient consisting of 5 min linear gradient from 25% to 50% B, and a wash at 100% B for 1.25 min, all at a flow rate of 0.6 mL/min (see attached timetable below). Mass spectrometer source conditions were capillary voltage, 4,000 V; cone voltage, 120 V; source temperature, 275° C.; scan range, 100-2,000 a.m.u. with a cycle time of 1 s.
The observed mass is generated by averaging the major peak in the total ion current (TIC). The charge-state series of the species are deconvoluted using Agilent MassHunter Bioconfirm using maximum entropy setting (range is set to 17000-23000 Da). […]

pIC50: −log10 of the molar value. A value given as a limit tells only on which side of the number the result lay.

In general, pIC50 refers to −log10 of the IC50, conventionally taken in molar units. Low readings indicate a high IC50, high ones a low IC50. At BRAF-GTP-KRASWT complex, `CC1COC(=O)C2CCCN(N2)C(=O)C(NC(=O)C(C(C)C)N(C)C(=O)C2CN(C(=O)CCl)C2)Cc2cc(O)cc(c2)-c2ccc3c(c2)c(cn3CC2COC2)C1` (mixture of isomers) [Compound 226] showed a pIC50 of under 4.52. Besides, on KRAS-G12C, the “% Crosslinking with KRAS-G12C-GTP in presence of CYPA, 5 min incubation” value was found to be 27%.
For `CC1COC(=O)C2CCCN(N2)C(=O)C(NC(=O)C(C(C)C)N(C)C(=O)C2CN(C(=O)CCl)C2)Cc2cc(O)cc(c2)-c2ccc3c(S(C)(=O)=O)cn(c3c2)C1` (single isomer, unassigned) [Compound 110], in that order: under 4.52 and 83%.

Values taken from US20240139185A1, “COMPOUNDS THAT PARTICIPATE IN COOPERATIVE BINDING AND USES THEREOF” (Revolution Medicines, Inc., priority 2018, published 2024).
